Assay results taken from article PMC5216056 (Nature Communications, 2017).

Legend:
Rat recombinant TRPV2 = biological target: T1, Rat recombinant TRPV2 (Rattus norvegicus, UniProt Q9WUD2); assay: cell-based; type: cell-based
T1 construct: expressed in transfected cells; host or cells: HEK293 (plasmid a gift from HB Bradshaw, Indiana University)
T1 sequence (Q9WUD2 1-761): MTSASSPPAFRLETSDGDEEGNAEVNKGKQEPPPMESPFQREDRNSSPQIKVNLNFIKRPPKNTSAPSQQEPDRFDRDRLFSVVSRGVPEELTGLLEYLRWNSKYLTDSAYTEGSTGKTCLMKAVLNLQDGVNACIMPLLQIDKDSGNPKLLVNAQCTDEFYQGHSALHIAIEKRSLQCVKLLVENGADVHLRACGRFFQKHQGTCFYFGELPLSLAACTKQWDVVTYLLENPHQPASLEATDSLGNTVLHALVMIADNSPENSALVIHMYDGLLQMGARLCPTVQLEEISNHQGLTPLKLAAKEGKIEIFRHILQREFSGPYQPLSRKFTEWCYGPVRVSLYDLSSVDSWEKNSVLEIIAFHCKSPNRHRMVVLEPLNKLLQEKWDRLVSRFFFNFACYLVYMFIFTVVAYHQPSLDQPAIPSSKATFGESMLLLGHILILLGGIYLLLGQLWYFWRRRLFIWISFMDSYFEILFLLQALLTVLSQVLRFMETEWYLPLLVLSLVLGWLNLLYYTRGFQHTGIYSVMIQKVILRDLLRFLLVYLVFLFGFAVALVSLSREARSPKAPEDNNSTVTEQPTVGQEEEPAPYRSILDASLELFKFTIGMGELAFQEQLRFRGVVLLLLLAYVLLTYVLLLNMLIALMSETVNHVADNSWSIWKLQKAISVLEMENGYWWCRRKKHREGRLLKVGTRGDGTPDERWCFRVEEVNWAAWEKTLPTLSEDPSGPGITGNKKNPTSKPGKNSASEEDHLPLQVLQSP

Rat recombinant TRPM8 = biological target: T2, Rat recombinant TRPM8 (Rattus norvegicus, UniProt Q8R455); assay: TRP channel [Ca2+]i assay; type: cell-based; conditions: agonist
T2 construct: expressed in transfected cells; host or cells: HEK293 (TRPM8-HEK-293, gift from Mario van der Stelt)
T2 sequence (Q8R455 whole entry): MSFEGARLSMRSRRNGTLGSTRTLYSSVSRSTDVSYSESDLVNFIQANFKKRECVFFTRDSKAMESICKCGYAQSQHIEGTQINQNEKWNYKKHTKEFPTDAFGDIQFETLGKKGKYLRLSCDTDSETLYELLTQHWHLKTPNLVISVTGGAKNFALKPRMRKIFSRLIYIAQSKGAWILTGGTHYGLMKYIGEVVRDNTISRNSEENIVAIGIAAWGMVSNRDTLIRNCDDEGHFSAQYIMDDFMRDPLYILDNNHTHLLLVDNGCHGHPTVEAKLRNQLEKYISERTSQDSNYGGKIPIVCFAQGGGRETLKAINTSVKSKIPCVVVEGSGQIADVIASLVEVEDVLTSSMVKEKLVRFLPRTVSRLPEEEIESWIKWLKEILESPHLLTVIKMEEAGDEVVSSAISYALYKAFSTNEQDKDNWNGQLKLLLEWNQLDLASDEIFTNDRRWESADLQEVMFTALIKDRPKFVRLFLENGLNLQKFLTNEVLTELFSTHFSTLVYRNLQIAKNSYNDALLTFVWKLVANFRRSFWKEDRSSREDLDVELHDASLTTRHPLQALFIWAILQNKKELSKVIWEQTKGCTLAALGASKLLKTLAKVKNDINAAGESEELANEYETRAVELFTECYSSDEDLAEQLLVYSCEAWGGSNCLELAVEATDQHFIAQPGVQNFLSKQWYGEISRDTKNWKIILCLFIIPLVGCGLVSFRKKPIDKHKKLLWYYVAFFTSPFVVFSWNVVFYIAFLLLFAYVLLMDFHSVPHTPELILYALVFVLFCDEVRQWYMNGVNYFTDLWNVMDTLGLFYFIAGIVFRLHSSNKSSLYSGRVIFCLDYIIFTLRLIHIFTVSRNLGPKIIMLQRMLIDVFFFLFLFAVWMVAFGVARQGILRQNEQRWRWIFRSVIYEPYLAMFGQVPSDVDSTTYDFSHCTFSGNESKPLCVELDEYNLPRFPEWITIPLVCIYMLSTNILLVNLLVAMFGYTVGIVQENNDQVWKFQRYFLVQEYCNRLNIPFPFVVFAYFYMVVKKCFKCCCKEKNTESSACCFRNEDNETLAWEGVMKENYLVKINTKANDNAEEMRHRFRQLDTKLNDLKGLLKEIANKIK

human NAPE-PLD = biological target: T3, human NAPE-PLD (Homo sapiens, UniProt Q6IQ20); assay: NAPE-PLD inhibition; type: biochemical; conditions: 10 µM
T3 construct: Full length human cDNA NAPE-PLD was obtained from Natsuo Ueda; expressed in transfected cells; host or cells: HEK293T (transient), membrane fraction
T3 sequence (Q6IQ20 whole entry): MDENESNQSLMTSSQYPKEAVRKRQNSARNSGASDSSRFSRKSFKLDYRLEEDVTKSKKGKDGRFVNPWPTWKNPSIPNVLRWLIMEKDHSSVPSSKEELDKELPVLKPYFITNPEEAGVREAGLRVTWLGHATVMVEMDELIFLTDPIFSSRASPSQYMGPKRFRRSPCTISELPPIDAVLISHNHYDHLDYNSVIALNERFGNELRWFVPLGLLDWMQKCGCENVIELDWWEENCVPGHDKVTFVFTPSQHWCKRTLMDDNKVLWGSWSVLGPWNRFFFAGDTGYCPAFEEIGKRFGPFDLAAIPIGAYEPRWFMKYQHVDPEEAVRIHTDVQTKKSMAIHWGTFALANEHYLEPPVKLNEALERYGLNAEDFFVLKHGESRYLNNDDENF
Procedure: Full length human cDNA NAPE-PLD was obtained from Natsuo Ueda[58] and cloned into mammalian expression vector pcDNA3.1, containing a C-terminal Flag-tag and genes for ampicillin and neomycin resistance. All plasmids were grown in XL-10 Z-competent cells and prepped (Maxi Prep, Qiagen). Sequence analysis for the confirmation of the sequences was performed at the Leiden Genome Technology Centre.
HEK293T cells (source: Dutch Cancer Institute) were cultured at 37 °C and 7% CO2 in DMEM with glutamax, penicillin (100 μg ml^−1), streptomycin (100 μg ml^−1) and 10% New Born Calf Serum iron supplemented (Hyclone SH30072.03). Cells were passaged twice a week to appropriate confluence. Twenty-four hours before transfection 10^7 cells were seeded on a 15 cm dish. Two hours before transfection, the medium was refreshed. Transfection is performed with PEI in a ratio of 3:1 with human NAPE-PLD or Mock pcDNA3.1Neo, 20 μg per dish. Medium is refreshed after 24 h and cells are harvested after 72 h. Cell suspensions are centrifuged at 1,000g for 10 min, supernatant removed and pellets frozen at −80 °C until further use.
Cell pellets are re-suspended in lysis buffer 1: 20 mM Hepes, 2 mM DTT, 0.25 M sucrose, 1 mM MgCl2, 2.5 U ml^−1 benzonase and incubated 30 min on ice. The cytosolic fraction (supernatant) is separated from the membranes by ultra-centrifugation (32,000 rpm for 30 min 100,000g). The pellet is resuspended in buffer 2: 20 mM Hepes, 2 mM DTT (membrane fraction). All samples are stored at −80 °C. Enzyme concentrations are determined using a Bradford assay.
The membrane protein fraction from transient overexpression of NAPE-PLD in HEK293T cells was diluted to 0.4 mg ml^−1 in assay buffer: 50 mM Tris-HCl (pH 7.5), 0.02% Triton X-100, 150 mM NaCl (ref. [60]). […] Relevant concentrations of compounds are prepared in DMSO. The assay is performed in a dark Greiner 96-well plate, end volume 100 μl. The compound or DMSO is incubated with membrane protein lysate (final concentration 0.04 mg ml^−1) for 30 min at 37 °C. A sample without membrane protein lysate is incorporated for background subtraction. Then, substrate is added (final concentration 1 μM) and the measurement is started immediately on a TECAN infinite M1000 pro at 37 °C (excitation 485 nm, emission 535 nm), scanning every 2 min for 1 h.

hDAGL-α = biological target: T4, hDAGL-α (Homo sapiens, UniProt Q9Y4D2); assay: Biochemical DAGLα activity assay; conditions: 10 µM
T4 construct: expressed in transfected cells; host or cells: HEK293T (transient), membrane preparation
T4 sequence (Q9Y4D2 1-1042): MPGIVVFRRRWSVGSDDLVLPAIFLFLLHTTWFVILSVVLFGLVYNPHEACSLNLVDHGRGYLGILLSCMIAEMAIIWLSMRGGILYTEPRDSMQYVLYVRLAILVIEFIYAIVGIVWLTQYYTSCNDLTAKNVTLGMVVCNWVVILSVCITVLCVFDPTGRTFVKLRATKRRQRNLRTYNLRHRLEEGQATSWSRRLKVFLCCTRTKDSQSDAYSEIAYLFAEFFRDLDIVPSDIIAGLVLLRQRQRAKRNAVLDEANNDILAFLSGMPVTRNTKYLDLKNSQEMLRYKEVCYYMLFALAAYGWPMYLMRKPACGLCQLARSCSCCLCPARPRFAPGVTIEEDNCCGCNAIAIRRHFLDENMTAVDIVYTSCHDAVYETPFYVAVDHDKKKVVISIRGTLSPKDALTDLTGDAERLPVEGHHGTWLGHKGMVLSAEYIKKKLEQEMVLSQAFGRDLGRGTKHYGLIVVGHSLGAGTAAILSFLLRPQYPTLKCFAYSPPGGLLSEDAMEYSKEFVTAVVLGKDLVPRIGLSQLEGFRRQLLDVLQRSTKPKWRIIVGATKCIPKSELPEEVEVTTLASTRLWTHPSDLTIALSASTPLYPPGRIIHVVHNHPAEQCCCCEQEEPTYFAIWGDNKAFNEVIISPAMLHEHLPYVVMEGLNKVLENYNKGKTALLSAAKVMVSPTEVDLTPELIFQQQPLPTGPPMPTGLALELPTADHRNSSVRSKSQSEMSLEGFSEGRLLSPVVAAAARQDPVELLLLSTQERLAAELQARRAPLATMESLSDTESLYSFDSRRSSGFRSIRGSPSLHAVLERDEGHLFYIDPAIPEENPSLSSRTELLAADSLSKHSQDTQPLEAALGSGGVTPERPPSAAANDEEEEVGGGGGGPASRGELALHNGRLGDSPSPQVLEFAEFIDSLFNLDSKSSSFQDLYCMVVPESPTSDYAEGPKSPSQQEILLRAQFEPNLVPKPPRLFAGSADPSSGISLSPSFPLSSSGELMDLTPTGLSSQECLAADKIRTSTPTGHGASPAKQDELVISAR
Procedure: (§1) Cell culture and membrane preparation were performed as previously described. HEK293T cells (source: Dutch Cancer Institute) were grown in DMEM with stable glutamine and phenolred (PAA), 10% New Born Calf serum, penicillin and streptomycin. Cells were passaged every 2–3 days by resuspending in medium and seeding them to appropriate confluence. Membranes were prepared from transiently transfected HEK293T cells. One day prior to transfection 10^7 cells were seeded in a 15 cm petri dish. Cells were transfected by the addition of a 3:1 mixture of polyethyleneimine (60 μg) and plasmid DNA (20 μg) in 2 ml serum-free medium. The medium was refreshed after 24 h, and after 72 h the cells were harvested by suspending them in 20 ml medium. The suspension was centrifuged for 10 min at 1000, rpm, and the supernatant was removed. The cell pellet was stored at −80 °C until use. Cell pellets were thawed on ice and suspended in lysis buffer A (20 mM HEPES, 2 mM DTT, 0.25 M sucrose, 1 mM MgCl2, […] Benzonase). The suspension was homogenized by polytrone (3 × 7 s) and incubated for 30 min on ice. The suspension was subjected to ultracentrifugation (100,000 × g, 30 min, 4 °C, Beckman Coulter, Type Ti70 rotor) to yield the cytosolic fraction in the supernatant and the membrane fraction as a pellet. The pellet was resuspended in lysis buffer B (20 mM HEPES, 2 mM DTT). The protein concentration was determined with Quick Start Bradford assay (Biorad). The protein fractions were diluted to a total protein concentration of 1 mg ml^−1 and stored in small aliquots at −80 °C until use.
hDAGL-α activity was measured by the extent of the hydrolysis of para-nitrophenylbutyrate (PNP-butyrate) by membrane preparations from HEK293T cells (source: Dutch Cancer Institute) transiently transfected with hDAGL-α (ref. [43]). Percentage of inhibition of reference ligands was determined in comparison with an untreated control. Reactions were performed in 50 mM pH 7.2 HEPES buffer with 0.05 μg μl^−1 final protein concentration hDAGL-α transfected protein.

MAGL = biological target: T5, MAGL (Homo sapiens, UniProt Q99685); assay: Biochemical MAGL activity assay; conditions: 10 µM
T5 construct: expressed in transfected cells; host or cells: HEK293T (transient), membrane preparation
T5 sequence (Q99685 1-303): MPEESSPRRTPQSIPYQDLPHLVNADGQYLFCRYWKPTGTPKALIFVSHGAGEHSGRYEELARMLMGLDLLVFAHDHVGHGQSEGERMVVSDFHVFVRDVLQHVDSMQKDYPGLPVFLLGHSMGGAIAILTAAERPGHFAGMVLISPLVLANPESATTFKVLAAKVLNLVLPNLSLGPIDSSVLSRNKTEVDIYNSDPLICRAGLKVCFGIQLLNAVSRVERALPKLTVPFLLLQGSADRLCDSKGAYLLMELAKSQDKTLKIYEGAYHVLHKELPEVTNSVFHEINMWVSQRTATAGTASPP
Procedure: as §1
Percentage of inhibition of reference ligands was determined in comparison with an untreated control. […] Fluorescence was measured in 5 min intervals for 60 min.

Rat recombinant TRPV3 = biological target: T6, Rat recombinant TRPV3 (Rattus norvegicus, UniProt Q4QYD9); assay: cell-based; type: cell-based
T6 construct: expressed in transfected cells; host or cells: HEK293 (TRPV3-HEK-293, gift from HB Bradshaw, Indiana University)
T6 sequence (Q4QYD9 1-791): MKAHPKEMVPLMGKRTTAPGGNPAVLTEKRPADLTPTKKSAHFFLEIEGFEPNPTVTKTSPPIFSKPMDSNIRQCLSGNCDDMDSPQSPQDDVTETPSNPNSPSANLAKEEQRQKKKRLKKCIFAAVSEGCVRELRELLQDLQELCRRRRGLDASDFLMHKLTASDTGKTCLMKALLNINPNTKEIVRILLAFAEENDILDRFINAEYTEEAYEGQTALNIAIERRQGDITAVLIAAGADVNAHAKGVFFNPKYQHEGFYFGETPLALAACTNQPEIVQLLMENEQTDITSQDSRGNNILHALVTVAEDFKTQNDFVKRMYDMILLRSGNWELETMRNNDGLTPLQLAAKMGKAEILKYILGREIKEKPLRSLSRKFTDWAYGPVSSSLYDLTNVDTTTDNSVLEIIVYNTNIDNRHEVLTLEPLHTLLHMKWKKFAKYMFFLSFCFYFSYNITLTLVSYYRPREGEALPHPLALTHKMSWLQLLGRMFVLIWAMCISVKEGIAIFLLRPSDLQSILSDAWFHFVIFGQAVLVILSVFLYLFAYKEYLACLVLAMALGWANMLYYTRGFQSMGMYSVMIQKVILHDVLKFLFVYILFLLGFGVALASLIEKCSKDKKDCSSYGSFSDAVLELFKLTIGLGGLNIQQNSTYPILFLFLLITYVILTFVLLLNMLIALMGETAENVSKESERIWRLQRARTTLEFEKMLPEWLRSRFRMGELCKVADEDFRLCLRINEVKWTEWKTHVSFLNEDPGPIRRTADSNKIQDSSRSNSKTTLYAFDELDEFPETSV

[1] = tested on: AEA cellular uptake in U937 cells; assay: cells; type: cell-based, human; conditions: 10 µM
Rat recombinant TRPV4 = biological target: T7, Rat recombinant TRPV4 (Rattus norvegicus, UniProt Q9ERZ8); assay: cell-based; type: cell-based
T7 construct: expressed in transfected cells; host or cells: HEK293 (TRPV4-HEK-293, gift from HB Bradshaw, Indiana University)
T7 sequence (Q9ERZ8 whole entry): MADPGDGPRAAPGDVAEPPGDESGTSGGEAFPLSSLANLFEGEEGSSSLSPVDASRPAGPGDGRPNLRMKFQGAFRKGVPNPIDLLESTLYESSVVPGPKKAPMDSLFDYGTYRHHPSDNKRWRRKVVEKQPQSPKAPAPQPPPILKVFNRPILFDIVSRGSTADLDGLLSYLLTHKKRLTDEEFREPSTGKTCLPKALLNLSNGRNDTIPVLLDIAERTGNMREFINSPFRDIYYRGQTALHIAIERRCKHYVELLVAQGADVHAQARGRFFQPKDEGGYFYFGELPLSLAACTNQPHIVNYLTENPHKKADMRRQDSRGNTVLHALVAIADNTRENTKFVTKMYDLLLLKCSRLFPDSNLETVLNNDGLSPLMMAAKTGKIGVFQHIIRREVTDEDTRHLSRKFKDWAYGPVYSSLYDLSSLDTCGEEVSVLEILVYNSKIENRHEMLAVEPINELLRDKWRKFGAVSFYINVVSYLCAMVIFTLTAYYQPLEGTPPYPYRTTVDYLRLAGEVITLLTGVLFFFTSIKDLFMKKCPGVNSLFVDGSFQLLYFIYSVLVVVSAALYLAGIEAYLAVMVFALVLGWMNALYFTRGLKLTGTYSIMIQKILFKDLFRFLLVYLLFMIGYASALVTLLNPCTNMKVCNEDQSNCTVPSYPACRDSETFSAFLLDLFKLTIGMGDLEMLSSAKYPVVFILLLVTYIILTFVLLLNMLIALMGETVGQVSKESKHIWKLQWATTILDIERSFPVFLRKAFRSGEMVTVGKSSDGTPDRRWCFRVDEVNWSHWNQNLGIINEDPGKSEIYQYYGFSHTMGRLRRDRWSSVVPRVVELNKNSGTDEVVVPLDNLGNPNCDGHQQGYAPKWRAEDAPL

**Q.** lysophosphatidylcholine [LPC] was tested. Which “TRPV2 Efficacy (% ionomycin 4μM)” value (Rat recombinant TRPV2) did it give?
**A.** 91.7±0.5%

**Q.** And the EC50 (Rat recombinant TRPV2; read-out: TRPV2 Potency EC50)?
**A.** 3.4 ± 0.02 µM

**Q.** `O=C1NC(c2cccc([N+](=O)[O-])c2)=CCN1c1ccccc1O` [icilin] was tested. Which TRPM8 efficacy (Rat recombinant TRPM8) did it give?
**A.** 75.1±1.1

**Q.** What about the EC50 (Rat recombinant TRPM8; read-out: TRPM8 potency EC50) of the same molecule?
**A.** 110 ± 10 nM

**Q.** How did the “NAPE-PLD % inhibition at 10 µM ± SD” value (human NAPE-PLD) turn out when `CCCCCc1cc(O)c2c(c1)OC(C)(C)[C@@H]1CCC(C)=C[C@@H]21` [Δ9-THC, Δ^9-tetrahydrocannabinol] was run?
**A.** 0 ± 12%

**Q.** And the “DAGL % inhibition at 10 µM ± SD” value (hDAGL-α)?
**A.** -9 ± 12%

**Q.** And the “MAGL % inhibition at 10 µM ± SD” value (MAGL)?
**A.** 7 ± 17%

**Q.** For `Cc1ccc(C(C)C)c(O)c1` [thymol], which “TRPV3 Efficacy (% ionomycin 4μM)” value (Rat recombinant TRPV3) is on record?
**A.** 34.7±0.2%

**Q.** What about the EC50 (Rat recombinant TRPV3; read-out: TRPV3 Potency EC50) of the same molecule?
**A.** 84.1 ± 1.6 µM

**Q.** With `CCCCC/C=C\C/C=C\C/C=C\C/C=C\CCCC(=O)NCc1ccoc1` [UCM707] as the molecule, how does the “AEA cellular uptake inhibition, positive controls” value [1] read?
**A.** 71.5±8.0%

**Q.** For `CCCCCCCCCC(=O)O[C@@H]1[C@@H](C)[C@@]2(O)[C@@H](C=C(CO)C[C@@]3(O)C(=O)C(C)=C[C@@H]23)[C@@H]2C(C)(C)[C@]12OC(=O)CCCCCCCCC` [4α-PDD, 4α-phorbol 12,13-didecanoate], which “TRPV4 Efficacy (% ionomycin 4μM)” value (Rat recombinant TRPV4) is on record?
**A.** 51.9±1.7%

**Q.** What about the EC50 (Rat recombinant TRPV4; read-out: TRPV4 Potency EC50) of the same molecule?
**A.** 460 ± 70 nM

**Q.** How did the “AEA cellular uptake inhibition, positive controls” value [1] turn out when `CCCCCCCC/C=C\CCCCCCCC(=O)N[C@@H](CO)Cc1ccc(O)cc1` [OMDM-2] was run?
**A.** 59.7±6.6%
